The text below walks through data of ChEMBL document CHEMBL5532639, “Heterocyclic pyrimidine derivatives as promising antibacterial agents” (Eur J Med Chem, 2023).

The subject of experiment [1] is Escherichia coli. The experiment is described as follows: Antibacterial activity against Escherichia coli assessed as reduction in bacterial growth. The class given is functional.
Another experiment has as its system Klebsiella sp. In words: Antibacterial activity against Klebsiella sp. assessed as inhibition of bacterial growth. It is filed as functional.
Experiment [2] concerns Staphylococcus aureus. The experiment is described as follows: Antibacterial activity against Staphylococcus aureus assessed as reduction in microbial growth. The class given is functional.
Experiment [3] relates to Pseudomonas aeruginosa. In words: Antibacterial activity against Pseudomonas aeruginosa assessed as reduction in bacterial growth. The class given is functional.
Experiment [4] deals with Bacillus subtilis. The experiment is described as follows: Antibacterial activity against Bacillus subtilis assessed as reduction in microbial growth by measuring zone of inhibition. It is filed as functional.
The test system of experiment [5] is Pseudomonas aeruginosa. In words: Antibacterial activity against Pseudomonas aeruginosa. It is filed as functional.
Experiment [6] relates to Bacillus subtilis. In words: Antibacterial activity against Bacillus subtilis ATCC 465 assessed as reduction in bacterial growth measured after 24 hrs by Mueller-Hinton broth assay. The class given is functional.
In experiment [7] the test system is Pseudomonas aeruginosa. In words: Antibacterial activity against Pseudomonas aeruginosa ATCC 85327 assessed as reduction in bacterial growth measured after 24 hrs by Mueller-Hinton broth assay. The class given is functional.
The test system of a further experiment is Streptococcus pneumoniae. The experiment is described as follows: Antibacterial activity against Streptococcus pneumoniae. The class given is functional.
Experiment [8] relates to Staphylococcus aureus. In words: Antibacterial activity against Staphylococcus aureus. The class given is functional.
In experiment [9] the test system is Bacillus subtilis. In words: Antibacterial activity against Bacillus subtilis. The class given is functional.
In experiment [10] the test system is Escherichia coli. In words: Antibacterial activity against Escherichia coli. It is filed as functional.
For experiment [11], the system named is Bacillus subtilis. The experiment is described as follows: Antimicrobial activity against Bacillus subtilis assessed as diameter of inhibition zone incubated for 24 hrs by well diffusion assay. It is filed as functional. A general note: In agar diffusion tests the substance spreads into inoculated agar from a disc or well.
The subject of experiment [12] is Salmonella typhimurium. The experiment is described as follows: Antibacterial activity against Salmonella typhimurium DT104 assessed as bacterial growth inhibition by measuring zone of inhibition at 50 ug/ml by agar cup diffusion assay. The note with it: Salmonella enterica, read-out: IZ. It is filed as functional, Salmonella enterica subsp. enterica serovar Typhimurium.

For experiment [13], the system named is Staphylococcus aureus. In words: Antibacterial activity against Staphylococcus aureus assessed as bacterial growth inhibition by measuring zone of inhibition at 50 ug/ml by agar cup diffusion assay. The class given is functional. To be noted: read-out: IZ.
The test system of a further experiment is Micrococcus luteus. The experiment is described as follows: Antimicrobial activity against Micrococcus luteus assessed as diameter of inhibition zone incubated for 24 hrs by well diffusion assay. It is filed as functional.
Experiment [14] concerns Pseudomonas aeruginosa. In words: Antimicrobial activity against Pseudomonas aeruginosa assessed as diameter of inhibition zone incubated for 24 hrs by well diffusion assay. The class given is functional.
Experiment [15] relates to Escherichia coli. In words: Antibacterial activity against Escherichia coli assessed as bacterial growth inhibition by measuring zone of inhibition at 50 ug/ml by agar cup diffusion assay. The class given is functional. To be noted: read-out: IZ.
Experiment [16] has as its system Salmonella typhimurium. In words: Antimicrobial activity against Salmonella typhimurium DT104 assessed as diameter of inhibition zone incubated for 24 hrs by well diffusion assay. It is filed as functional, Salmonella enterica subsp. enterica serovar Typhimurium.
Experiment [17] deals with Bacillus subtilis. The experiment is described as follows: Antibacterial activity against Bacillus subtilis assessed as bacterial growth inhibition by measuring zone of inhibition at 50 ug/ml by agar cup diffusion assay. The class given is functional. To be noted: read-out: IZ.

Values after ≈ are worked out from the molar mass of the structure shown.

For `NC(=O)N/N=C/c1ccc([N+](=O)[O-])o1` [NITROFURAZONE], the MIC (as a rule, the smallest concentration in the dilution series that meets the test's criterion for growth inhibition) with Escherichia coli [1] came to 12.5 µg/mL (≈ 63.1 µM); in the experiment on Klebsiella sp. it was 12.5 µg/mL (≈ 63.1 µM); with Staphylococcus aureus [2], 12.5 µg/mL; in the experiment on Pseudomonas aeruginosa [3], 6 µg/mL (≈ 30.3 µM).

With GENTAMICIN, in the experiment on Bacillus subtilis [4], the inhibition zone (IZ) stood at 24 mm. Besides, the MIC against Pseudomonas aeruginosa [5] was determined as 0.98 µg/mL; with Bacillus subtilis [6], 0.125 µg/mL; in the experiment with Pseudomonas aeruginosa [7] it was 1 µg/mL.

As to `O=c1[nH]c(=S)[nH]c2nc(-c3ccc(Cl)cc3)cc(-c3ccccc3)c12`, the MIC against Streptococcus pneumoniae was 0.98 µg/mL (≈ 2.68 µM); against Staphylococcus aureus [8], 3.9 µg/mL (≈ 10.7 µM); against Bacillus subtilis [9], 1.95 µg/mL (≈ 5.33 µM); against Escherichia coli [10], 0.98 µg/mL (≈ 2.68 µM); with Pseudomonas aeruginosa [5] it was 3.9 µg/mL (≈ 10.7 µM).

With `COc1ccc2cc(-c3nc4sc5c(c4c(=O)n3N)CCCC5)ccc2c1`, the MIC in the experiment on Escherichia coli [1] was found to be 12.5 µg/mL (≈ 33.1 µM); in the experiment on Klebsiella sp. it was 12.5 µg/mL (≈ 33.1 µM); with Staphylococcus aureus [2] it was 12.5 µg/mL; in the experiment with Pseudomonas aeruginosa [3], 12.5 µg/mL (≈ 33.1 µM).

`CN(C)[C@@H]1C(O)=C(C(N)=O)C(=O)[C@@]2(O)C(O)=C3C(=O)c4c(O)cccc4[C@@](C)(O)[C@H]3C[C@@H]12` [TETRACYCLINE]: the “inhibition zone (IZ)” value in the experiment on Bacillus subtilis [11] worked out at 14 mm; with Micrococcus luteus, 16 mm; with Pseudomonas aeruginosa [14], 18 mm; with Salmonella typhimurium [16], 8 mm. For the same molecule, the zone of inhibition at 50 µg/mL stood at 24 mm in the experiment on Salmonella typhimurium [12], 19 mm in the experiment on Staphylococcus aureus [13], 15 mm with Escherichia coli [15] and 21 mm in the experiment with Bacillus subtilis [17].
